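Values below derive from 48-hour exposures of cells grown in 96-well plates, with endpoints linearly interpolated between the two concentrations bracketing the appropriate inhibition level. GI50 marks 50% less growth. Definition used: TGI = concentration required for complete inhibition of growth.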
How the values were obtained:
Assay in all cases: NCI tumour cell line growth inhibition, 48 h
A549 NSCLC = tested on: A549 NSCLC
OVCAR-8 ovarian = tested on: OVCAR-8 ovarian
TK-10 renal = tested on: TK-10 renal
U251 CNS = tested on: U251 CNS
SK-OV-3 ovarian = tested on: SK-OV-3 ovarian
SNB-19 CNS = tested on: SNB-19 CNS
SF-268 CNS = tested on: SF-268 CNS
786-0 renal = tested on: 786-0 renal
HCT-15 colon = tested on: HCT-15 colon
OVCAR-3 ovarian = tested on: OVCAR-3 ovarian

SMILES	GI50 (A549 NSCLC) [µM]	TGI (A549 NSCLC) [µM]	GI50 (OVCAR-8 ovarian) [µM]	TGI (OVCAR-8 ovarian) [µM]	GI50 (TK-10 renal) [µM]	TGI (TK-10 renal) [µM]	GI50 (U251 CNS) [µM]	TGI (U251 CNS) [µM]	GI50 (SK-OV-3 ovarian) [µM]	TGI (SK-OV-3 ovarian) [µM]	GI50 (SNB-19 CNS) [µM]	TGI (SNB-19 CNS) [µM]	GI50 (SF-268 CNS) [µM]	TGI (SF-268 CNS) [µM]	GI50 (786-0 renal) [µM]	TGI (786-0 renal) [µM]	GI50 (HCT-15 colon) [µM]	TGI (HCT-15 colon) [µM]	GI50 (OVCAR-3 ovarian) [µM]	TGI (OVCAR-3 ovarian) [µM]
CC(=O)[CH-]C(=O)c1ccccc1.CC(=O)[CH-]C(=O)c1ccccc1.CC1(C)OCC(C2OC3OC(C)(C)OC3C2[O-])O1.CC[O-].[Ti+4] (stereo unspecified)	16.6	40	11.5	26.9	12.4	27	13.1	28.3	21.9	61.1	12.4	25.4	13.1	29	18.4	36	25.9	68	11.7	30.2
C/C1=C\CC[C@@](C)(O)[C@@H]2C[C@H](CC/C(C)=C/CC1)C1(CC1)C(=O)O2	42.8	> 100	61.5	> 100	29.6	96.5	23	57.1	39	> 100	61.9	> 100	81.7	> 100	44.6	> 100	30.2	> 100	22	47.4
Fc1ccc2nc(-c3cc(-c4ccc5c(c4)OCO5)n[nH]3)[nH]c2c1	2.51	13.8	2.99	16	7.3	> 45.1	2.49	> 35.8	7.95	26.5	> 32.5	> 100	5.22	> 54.9	5.89	> 80	3.27	> 42.4	3.29	18.3
Cc1cccc(C)c1N1C(=O)C(=O)C(c2nc3ccccc3s2)/C(=N/NC(=O)NN)C1=O (stereo unspecified)		> 100		> 100		> 100		> 100		> 100		> 100		> 100		> 100		> 100		> 100
COc1ccc(C2Oc3c(c(O)cc4c3[C@H](c3ccc(O)cc3O)[C@H](O)C(c3ccc(O)c(O)c3)O4)C[C@@H]2O)cc1O (stereo partly specified)		> 100		> 100		> 100		> 100		> 100		> 100		> 100		> 100		> 100		> 100
CCNCCNc1cc(-c2ccc(C#N)cc2)c(C#N)c2nc3ccccc3n12	3.06	6.39	5.15	16.9	2.03	5.74	2.34	5.2	3.8	14.8	4.69	17.4	3.42	14.1	2.2	7.46	2.81	11	1.66	3.09
CCn1c(-c2nonc2N)nc2ccncc21	> 25	> 25	> 25	> 25	> 25	> 25	> 25	> 25	> 25	> 25	> 25	> 25	> 25	> 25	> 25	> 25	> 25	> 25	> 25	> 25
Cc1c2ccncc2c(C)c2c1[nH]c1ccc(O)c(OCC(F)(F)F)c12		16.5		26		25		10.7		19.9		9.17		24.1		5.78				19
O=C1/C(=C/c2ccc([N+](=O)[O-])cc2)COc2ccc(O)cc21	78	> 100	5.88	> 100	26.2	> 100	1.99	4.13	> 100	> 100	4.29	30.8	15.3	> 100	3.05	11.7	2.24	7.61	3.26	11.8
C=C1C2Oc3ccccc3C1N(c1ccccc1)O2 (stereo unspecified)		> 100		33.2		> 100		90		> 100		> 100		> 100		> 100		> 100		> 100
O=C(/C=C/c1cccc(O)c1)c1cccc(-n2cc(-c3ccc4ccccc4c3)[nH]c2=O)c1	3.38	12.7	2.33	> 100	3.45	8.53	1.09	2.28	2.15	6.73	1.32	4.13	1.73	3.55	1.74	3.13	1.56	4.8	1.33	2.78
CC(C)(C)NCC(COc1ccc([N+](=O)[O-])cc1)OP(c1ccccc1)c1ccccc1 (stereo unspecified)		> 100		> 100		> 100		> 100		> 100		> 100		> 100		> 100		> 100		> 100
Nc1cc(-c2ccc(Cl)cc2)nn1-c1nnc(/C=C/c2ccco2)c(=O)[nH]1	3.46	22.2	4.09	33	5.6	36.1	3	37.7	6.09	> 86.2	5.11	> 83.3	3.37	39	5.04	23.9	1.38	> 49.1	2.16	8.45
O=C(CC1(O)C(=O)Nc2c(Cl)ccc(Cl)c21)c1ccc(Cl)cc1Cl (stereo unspecified)		47.2		41.6		> 100		21.9		46.6		> 100		62.9		27.8		> 100		30.9
O=C(c1cccs1)C1NO[N+]([O-])=C1c1cccs1 (stereo unspecified)	9.89	34.4	2.9	> 21.9	2.45	6.27	5.6	12	18.6	32.8	29.9	> 79.2	2.35	5.98	2.01	3.88	3.43	14.7	1.79	3.2
COc1ccccc1NC(=O)/C(=C/c1ccccc1)C(C)=O		> 100		> 100		> 100		15		> 100		> 100		> 100		> 100		> 100		> 100
C=CC1=C(C)C2=NC1=CC1=NC(=CC3=C(C)C4=C(O)[C@H](C(=O)OC)C(=C5NC(=C2)[C@@H](C)[C@@H]5CCC(=O)O)C4=N3)C(CC)=C1C		> 43.9		> 100		25.5		> 41.2		> 40		> 100		> 100		> 28.2		9.72		

SMILES	GI50 (A549 NSCLC) [µM]	TGI (A549 NSCLC) [µM]	GI50 (OVCAR-8 ovarian) [µM]	TGI (OVCAR-8 ovarian) [µM]	GI50 (TK-10 renal) [µM]	TGI (TK-10 renal) [µM]	GI50 (U251 CNS) [µM]	TGI (U251 CNS) [µM]	GI50 (SK-OV-3 ovarian) [µM]	TGI (SK-OV-3 ovarian) [µM]	GI50 (SNB-19 CNS) [µM]	TGI (SNB-19 CNS) [µM]	GI50 (SF-268 CNS) [µM]	TGI (SF-268 CNS) [µM]	GI50 (786-0 renal) [µM]	TGI (786-0 renal) [µM]	GI50 (HCT-15 colon) [µM]	TGI (HCT-15 colon) [µM]	GI50 (OVCAR-3 ovarian) [µM]	TGI (OVCAR-3 ovarian) [µM]
CC(C)(C)c1ccc(OC2CCO2)cc1 (stereo unspecified)		> 100		> 100		> 100		35.3		> 100		> 100		81.5		63.3		36.9		> 100
COc1cccc2c(=O)c3c(sc12)c(NCCCNCCO)nc1ccccc13	1.42	3.11	1.78	3.97			1.53	3.02	3.39	19.4			1.59	3.33	1.75	3.25	1.51	3.02	1.64	3.16
CC(C)(C)OC(=O)NC1CCCC1=O (stereo unspecified)		> 100		> 100		> 100		> 100		> 100		> 100		> 100		> 100				> 100
Cc1cc(C)n(C2=NS(=O)(=O)c3ccccc3N2C)n1		> 100		> 100		> 100		> 100		> 100		> 100		> 100		> 100		> 100		> 100
Cc1c(C)c(CC(=O)N2CC2)c(C)c(C)c1CC(=O)N1CC1		50.3		> 49.6		> 83		> 67.3		99.5		> 100		23.1		> 65.9		> 58.2		51.4
O=S1CSSC1		> 100		52		> 100		37.5		53.3		> 100		58.4		47				58.9
CCOC(=O)N1CCN(CCCCCOc2ccccc2C2CCCCC2)CC1	5.01	17.3			7.99	21.7	5.05	19	6.08	19.1	10.7	22.6	15.3	35.1	1.86	3.78	3.09	12.9	8.29	24.1
CN(C)C(=S)Nc1nnc(Nc2ccccc2)s1		> 100		> 100				> 100		> 100		> 100				> 100		> 100		> 100
COC(=O)c1ccc2c(c1)C(=O)c1c-2n(CCCN=[N+]=[N-])c(=O)c2cc([N+](=O)[O-])ccc12			> 100	> 100	29.6	68.6	18	48.8	35.3	> 100	47.4	> 100	17.3	> 100	25.1	79	> 100	> 100	> 100	> 100
O=C1c2ccccc2-c2c1c1ccccc1c(=O)n2CCNCCn1c2c(c3ccccc3c1=O)C(=O)c1ccccc1-2	> 25	> 25	> 25	> 25	> 25	> 25	> 25	> 25			0.333	> 25	> 25	> 25	12.2	> 25	> 25	> 25	> 25	> 25
CC1=NN(C(=O)c2ccncc2)C(=O)C1N=Nc1ccc(F)cc1 (stereo unspecified)		> 100		> 100		> 100				> 100		> 100		> 100		> 100		> 100		> 100
C[C@]12C/C(=C/O)C(=O)C(O)=C1CC[C@@H]1C2CC[C@@]2(C)C1CC[C@@H]2O (stereo partly specified)		> 100		75.6		> 100				65.5		36.1		54.1		87.5		61.5		44.4
[2H]c1nc(=Nc2cc(NC(=O)C=C)c(N(C)CCN(C)C)cc2OC)[nH]c(-c2cn(C([2H])([2H])[2H])c3ccccc23)c1[2H]	1.14	7.64	4	24.5	0.0802	3.8	1.76	3.6			1.4	3.05	1.98	13	1.34	2.68	1.44	3.05	1.18	2.83
CCCCCCC(C)CCCCCCCCCCC(=O)O (stereo unspecified)		> 100		> 100		> 100		> 100		> 100		> 100		> 100		> 100				> 100
Cc1nc(-c2cccnc2)sc1C(=O)/C=C/c1cccc([N+](=O)[O-])c1		> 100		> 100		> 100		> 100		> 100				> 100		> 100		> 100		> 100
CSc1ccc(N(C)c2nc(C)nc3c2CCC3)cc1	< 0.01	> 100	< 0.01	> 100			< 0.01	> 100	< 0.01	16.1	< 0.01	> 100	< 0.01	60.4	< 0.01	50	< 0.01	> 100	< 0.01	< 0.01
